According to publication PMC6930582, “Synthesis and Evaluation of Novel 2H-Benzo[e]-[1,2,4]thiadiazine 1,1-Dioxide Derivatives as PI3Kδ Inhibitors” (Molecules, 2019):
Entries after “also recorded” stand apart in the source; their conditions may differ. Where two headings read alike, the source gives them in different places.

Legend:
[1] = target: PI3Kδ (Homo sapiens, UniProt O00329); assay: PI3Kδ kinase assay (ADP-Glo luminescent assay); type: biochemical; settings: for IC50: ADP-Glo, mean ± SD from two separate experiments, Table 1 and text, read-out: PI3Kδ inhibitory activity IC50; for PI3Kδ inhibitory activity (in words): qualitative statement; for decrease in PI3Kδ potency on introduction of 7-fluorine: compared with the non-fluorinated analogue
[2] = target: T1, PI3Kβ (Homo sapiens, UniProt P42338); assay: PI3Kβ kinase assay (ADP-Glo luminescent assay); type: biochemical; settings: for IC50: ADP-Glo, mean ± SD from two separate experiments
[3] = target: T2, PI3Kα (Homo sapiens, UniProt P42336); assay: PI3Kα kinase assay (kinase-Glo luminescent assay); type: biochemical; settings: for IC50: kinase-Glo, mean ± SD from two separate experiments
[4] = tested on: SU-DHL-6 cells; assay: SU-DHL-6 cell proliferation assay (CellTiter-Glo); type: cell-based, human; settings: for GI50: Homo sapiens, SU-DHL-6 cell growth inhibition, CellTiter-Glo, mean ± SD from two separate experiments; for SU-DHL-6 cell proliferation inhibition (in words): qualitative statement
Description: The selective PI3Kδ inhibitors 15a and 15b were further evaluated for their antiproliferative activity against human B-cell SU-DHL-6.
Cell proliferation was evaluated by The CellTiter-Glo luminescent cell viability assay (Promega, Shanghai, China) was used to evaluate the inhibitory activity of compounds 15a and 15b following the manufacturer’s protocol. In brief, SU-DHL-6 (ATCC) cells were seeded in 96-well plates (Corning, Los Altos, MA, USA) at density of 1 × 10^4 cells per well, and incubated with medium alone or with the tested compounds at the indicated concentrations (50 μM in DMSO, 3-fold dilution, in duplicate for 10 concentrations). 50 μL CellTiter-Glo (Promega, Shanghai, China) reagent was added to each well to induce cell lysis, and the plate was incubated at room temperature for 10 min to stabilize luminescent signal. After 100 μL of the mixture from each well was transferred to a new 96-well black plate, the […] signal was read on EnVision (Shanghai, China) and the data were analysized by XLFit 4 software (IDBS, Berlin, Germany).

[5] = target: T3, PI3Kγ (Homo sapiens, UniProt P48736); assay: PI3Kγ kinase assay (ADP-Glo luminescent assay); type: biochemical; settings: mean ± SD from two separate experiments
[6] = target: T1, PI3Kβ; set-up: method as in PMID 29601991; settings: quinazolinone leads, previous work; ref [33]; cited from earlier work
[7] = target: T2, PI3Kα; set-up: method as in PMID 29601991; settings: quinazolinone leads, previous work; ref [33]; cited from earlier work
[8] = target: T3, PI3Kγ; set-up: method as in PMID 29601991; settings: quinazolinone leads, previous work; ref [33]; cited from earlier work

T2 sequence (P42336 whole entry): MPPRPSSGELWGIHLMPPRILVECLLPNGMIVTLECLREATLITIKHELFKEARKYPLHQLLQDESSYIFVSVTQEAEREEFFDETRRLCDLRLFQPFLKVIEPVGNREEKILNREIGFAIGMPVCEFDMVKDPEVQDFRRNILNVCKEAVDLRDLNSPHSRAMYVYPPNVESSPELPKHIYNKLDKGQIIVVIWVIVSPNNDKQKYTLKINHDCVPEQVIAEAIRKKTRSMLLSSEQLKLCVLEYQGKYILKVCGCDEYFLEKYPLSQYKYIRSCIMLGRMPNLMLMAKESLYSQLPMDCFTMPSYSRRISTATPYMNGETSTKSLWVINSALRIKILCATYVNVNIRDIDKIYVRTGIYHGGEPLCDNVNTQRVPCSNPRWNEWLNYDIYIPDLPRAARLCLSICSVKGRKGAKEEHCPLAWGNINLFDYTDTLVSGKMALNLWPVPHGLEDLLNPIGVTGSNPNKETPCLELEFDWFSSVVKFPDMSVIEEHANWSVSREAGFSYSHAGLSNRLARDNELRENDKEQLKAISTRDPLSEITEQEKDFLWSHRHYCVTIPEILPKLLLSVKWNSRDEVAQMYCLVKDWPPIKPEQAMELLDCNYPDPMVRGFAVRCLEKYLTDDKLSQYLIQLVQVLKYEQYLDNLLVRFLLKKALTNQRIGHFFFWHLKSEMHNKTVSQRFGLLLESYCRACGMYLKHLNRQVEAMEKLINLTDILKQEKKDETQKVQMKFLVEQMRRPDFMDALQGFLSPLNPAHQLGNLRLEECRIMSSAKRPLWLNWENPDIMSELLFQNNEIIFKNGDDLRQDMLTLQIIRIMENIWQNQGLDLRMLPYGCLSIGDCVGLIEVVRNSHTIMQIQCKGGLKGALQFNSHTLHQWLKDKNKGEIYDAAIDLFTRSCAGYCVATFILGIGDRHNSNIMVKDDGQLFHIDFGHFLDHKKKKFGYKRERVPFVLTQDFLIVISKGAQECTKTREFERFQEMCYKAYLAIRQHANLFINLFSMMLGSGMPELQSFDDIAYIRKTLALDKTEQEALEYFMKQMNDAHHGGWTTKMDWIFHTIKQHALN
T2 sequence (P27986 whole entry partner): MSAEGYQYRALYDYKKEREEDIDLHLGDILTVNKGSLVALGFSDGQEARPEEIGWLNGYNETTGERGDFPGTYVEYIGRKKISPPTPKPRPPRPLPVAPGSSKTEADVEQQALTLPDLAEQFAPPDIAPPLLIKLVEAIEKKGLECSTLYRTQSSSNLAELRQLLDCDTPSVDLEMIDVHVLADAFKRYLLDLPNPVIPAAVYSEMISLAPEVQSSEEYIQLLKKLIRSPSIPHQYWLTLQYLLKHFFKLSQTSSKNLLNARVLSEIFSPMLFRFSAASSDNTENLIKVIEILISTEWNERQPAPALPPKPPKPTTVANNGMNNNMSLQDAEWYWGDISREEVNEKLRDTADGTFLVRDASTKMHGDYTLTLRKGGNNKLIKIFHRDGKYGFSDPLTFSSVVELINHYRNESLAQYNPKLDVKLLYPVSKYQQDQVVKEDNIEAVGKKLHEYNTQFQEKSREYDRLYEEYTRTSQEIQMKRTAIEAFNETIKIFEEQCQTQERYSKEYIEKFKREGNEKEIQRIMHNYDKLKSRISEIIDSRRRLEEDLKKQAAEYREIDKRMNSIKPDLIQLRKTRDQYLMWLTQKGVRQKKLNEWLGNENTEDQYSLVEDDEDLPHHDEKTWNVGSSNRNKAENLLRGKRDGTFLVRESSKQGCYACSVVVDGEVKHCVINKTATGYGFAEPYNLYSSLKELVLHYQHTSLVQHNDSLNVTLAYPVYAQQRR
Sequence of PI3Kδ (O00329 whole entry): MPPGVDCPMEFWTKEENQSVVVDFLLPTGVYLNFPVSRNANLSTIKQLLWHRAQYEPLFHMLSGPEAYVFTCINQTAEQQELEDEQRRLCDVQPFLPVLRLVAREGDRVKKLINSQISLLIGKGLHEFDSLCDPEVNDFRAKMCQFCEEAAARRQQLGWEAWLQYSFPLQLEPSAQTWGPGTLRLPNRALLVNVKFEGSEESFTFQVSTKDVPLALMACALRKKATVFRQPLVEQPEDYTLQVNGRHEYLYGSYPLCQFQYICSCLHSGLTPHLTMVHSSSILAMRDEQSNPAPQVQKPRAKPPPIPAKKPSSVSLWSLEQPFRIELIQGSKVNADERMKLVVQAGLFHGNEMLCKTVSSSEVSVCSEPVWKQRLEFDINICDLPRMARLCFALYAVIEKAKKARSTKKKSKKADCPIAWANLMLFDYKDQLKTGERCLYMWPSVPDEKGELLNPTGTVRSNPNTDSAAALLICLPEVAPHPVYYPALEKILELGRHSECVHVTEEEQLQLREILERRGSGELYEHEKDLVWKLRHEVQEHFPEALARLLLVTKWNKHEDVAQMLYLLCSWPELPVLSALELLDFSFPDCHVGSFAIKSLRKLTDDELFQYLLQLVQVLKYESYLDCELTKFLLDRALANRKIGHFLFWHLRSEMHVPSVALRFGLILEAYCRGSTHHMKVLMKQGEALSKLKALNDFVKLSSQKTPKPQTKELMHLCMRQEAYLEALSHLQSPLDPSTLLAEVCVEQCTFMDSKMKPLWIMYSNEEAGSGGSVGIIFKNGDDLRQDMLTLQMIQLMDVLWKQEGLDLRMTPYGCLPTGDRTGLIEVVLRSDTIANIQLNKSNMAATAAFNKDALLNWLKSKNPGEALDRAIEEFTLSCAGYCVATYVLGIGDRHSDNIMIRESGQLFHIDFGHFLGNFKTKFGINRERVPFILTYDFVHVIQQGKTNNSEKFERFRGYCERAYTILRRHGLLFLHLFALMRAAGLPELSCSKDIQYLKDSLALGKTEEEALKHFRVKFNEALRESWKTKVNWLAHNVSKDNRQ
Sequence of PI3Kδ (P27986 whole entry partner): as the sequence (P27986 whole entry partner) above
T1 sequence (P42338 whole entry): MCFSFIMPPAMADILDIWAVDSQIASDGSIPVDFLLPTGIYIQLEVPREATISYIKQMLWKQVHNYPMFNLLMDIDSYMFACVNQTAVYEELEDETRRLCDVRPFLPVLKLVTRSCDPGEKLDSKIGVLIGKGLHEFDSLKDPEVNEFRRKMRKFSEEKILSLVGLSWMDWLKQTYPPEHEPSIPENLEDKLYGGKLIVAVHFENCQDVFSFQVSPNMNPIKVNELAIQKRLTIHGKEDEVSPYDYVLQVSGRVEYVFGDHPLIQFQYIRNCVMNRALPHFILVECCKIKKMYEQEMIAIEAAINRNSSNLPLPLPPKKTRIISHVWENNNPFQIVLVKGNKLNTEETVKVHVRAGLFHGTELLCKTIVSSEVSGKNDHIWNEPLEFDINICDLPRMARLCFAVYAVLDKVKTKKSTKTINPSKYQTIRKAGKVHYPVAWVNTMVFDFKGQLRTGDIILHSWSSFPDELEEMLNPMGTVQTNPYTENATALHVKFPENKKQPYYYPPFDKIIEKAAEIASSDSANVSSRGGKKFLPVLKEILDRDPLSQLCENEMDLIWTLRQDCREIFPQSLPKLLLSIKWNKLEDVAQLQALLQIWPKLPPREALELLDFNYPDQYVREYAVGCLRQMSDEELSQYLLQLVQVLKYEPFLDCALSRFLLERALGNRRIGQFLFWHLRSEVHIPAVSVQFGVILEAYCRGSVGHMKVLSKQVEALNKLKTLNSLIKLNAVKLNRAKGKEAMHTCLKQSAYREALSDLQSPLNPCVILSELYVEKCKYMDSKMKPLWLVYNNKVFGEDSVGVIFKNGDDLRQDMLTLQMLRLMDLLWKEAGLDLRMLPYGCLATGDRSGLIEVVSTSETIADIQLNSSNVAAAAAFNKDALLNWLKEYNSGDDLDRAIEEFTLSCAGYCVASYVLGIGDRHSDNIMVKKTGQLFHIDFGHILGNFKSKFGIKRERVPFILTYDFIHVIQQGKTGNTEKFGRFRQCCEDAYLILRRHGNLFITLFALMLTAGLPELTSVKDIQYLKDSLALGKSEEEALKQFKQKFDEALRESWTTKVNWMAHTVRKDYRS
T1 sequence (P27986 whole entry partner): as the sequence (P27986 whole entry partner) above
T3 sequence (P48736 whole entry): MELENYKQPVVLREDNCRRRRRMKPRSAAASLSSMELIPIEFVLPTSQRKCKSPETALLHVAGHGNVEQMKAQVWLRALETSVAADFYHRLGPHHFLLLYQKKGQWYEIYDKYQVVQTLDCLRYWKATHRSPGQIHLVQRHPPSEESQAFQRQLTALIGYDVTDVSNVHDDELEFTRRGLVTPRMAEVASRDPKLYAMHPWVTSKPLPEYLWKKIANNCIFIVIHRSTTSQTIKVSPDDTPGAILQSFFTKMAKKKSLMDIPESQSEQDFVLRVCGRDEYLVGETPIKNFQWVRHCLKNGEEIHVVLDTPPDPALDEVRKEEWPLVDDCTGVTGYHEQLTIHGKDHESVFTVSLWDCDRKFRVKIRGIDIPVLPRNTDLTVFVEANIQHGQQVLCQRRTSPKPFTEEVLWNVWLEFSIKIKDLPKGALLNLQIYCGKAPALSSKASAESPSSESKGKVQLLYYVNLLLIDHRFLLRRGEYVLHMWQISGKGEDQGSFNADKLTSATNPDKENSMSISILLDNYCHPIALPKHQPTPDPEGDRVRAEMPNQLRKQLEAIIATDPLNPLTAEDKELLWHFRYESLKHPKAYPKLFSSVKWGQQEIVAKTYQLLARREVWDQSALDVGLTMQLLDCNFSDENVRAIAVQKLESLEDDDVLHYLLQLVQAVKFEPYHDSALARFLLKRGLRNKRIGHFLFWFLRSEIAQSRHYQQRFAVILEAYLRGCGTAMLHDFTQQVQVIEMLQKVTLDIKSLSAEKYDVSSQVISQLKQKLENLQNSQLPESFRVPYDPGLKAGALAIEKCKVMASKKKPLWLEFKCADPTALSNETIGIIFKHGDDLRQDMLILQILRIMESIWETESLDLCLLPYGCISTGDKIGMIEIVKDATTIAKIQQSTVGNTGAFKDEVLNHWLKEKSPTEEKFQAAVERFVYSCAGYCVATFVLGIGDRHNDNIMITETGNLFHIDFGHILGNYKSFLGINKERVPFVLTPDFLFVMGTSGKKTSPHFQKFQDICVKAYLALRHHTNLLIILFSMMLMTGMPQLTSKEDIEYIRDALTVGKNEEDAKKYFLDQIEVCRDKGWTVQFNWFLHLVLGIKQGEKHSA

SMILES | IC50 [1] [µM] | melting point [°C] | PI3Kδ inhibitory activity (in words) [1] | further results
Cc1cccc(C)c1N1C(Cn2nc(-c3ccc4[nH]ccc4c3)c3c(N)ncnc32)=Nc2ccccc2S1(=O)=O [15a, 3-((4-Amino-3-(1H-indol-5-yl)-1H-pyrazolo[3,4-d]pyrimidin-1-yl)methyl)-2-(2,6-dimethylphenyl)-2H-benzo[e][1,2,4]thiadiazine 1,1-dioxide] | 0.217 ± 0.028 |  |  | IC50 [2]: 30.6 ± 0.875 µM; IC50 [3]: > 50 µM; GI50 [4]: 2.13 ± 0.09 µM; SU-DHL-6 cell proliferation inhibition (in words) [4]: significantly inhibited; also recorded: high antiproliferative potency; IC50 [5]: > 50 µM
COc1ccc(-c2nn(CC3=Nc4ccccc4S(=O)(=O)N3c3c(C)cccc3C)c3ncnc(N)c23)cc1OC [15b, 3-((4-Amino-3-(3,4-dimethoxyphenyl)-1H-pyrazolo[3,4-d]pyrimidin-1-yl)methyl)-2-(2,6-dimethylphenyl)-2H-benzo[e][1,2,4]thiadiazine 1,1-dioxide] | 0.266 ± 0.031 | 220 to 222 |  | IC50 [2]: 24.2 ± 0.495 µM; selectivity for PI3Kδ over PI3Kβ ([2]; ratio of IC50 values): > 90 fold; IC50 [3]: 16.4 ± 0.768 µM; selectivity for PI3Kδ over PI3Kα ([3]; ratio of IC50 values): more than 60 fold; GI50 [4]: 2.5 ± 0.11 µM; SU-DHL-6 cell proliferation inhibition (in words) [4]: significantly inhibited; also recorded: high antiproliferative potency; IC50 [5]: 5.84 ± 0.135 µM
COc1ccc(-c2nn(CC3=Nc4ccccc4S(=O)(=O)N3c3c(C)cccc3C)c3ncnc(N)c23)cc1F [15c, 3-((4-Amino-3-(3-fluoro-4-methoxyphenyl)-1H-pyrazolo[3,4-d]pyrimidin-1-yl)methyl)-2-(2,6-dimethyl-phenyl)-2H-benzo[e][1,2,4]thiadiazine 1,1-dioxide] | 0.98 ± 0.045 |  | marginal activity | 
COc1ccc(-c2nn(CC3=Nc4ccccc4S(=O)(=O)N3c3c(C)cccc3C)c3ncnc(N)c23)cn1 [15d, 3-((4-Amino-3-(6-methoxypyridin-3-yl)-1H-pyrazolo[3,4-d]pyrimidin-1-yl)methyl)-2-(2,6-dimethylphenyl)-2H-benzo[e][1,2,4]thiadiazine 1,1-dioxide] | 0.498 ± 0.033 |  |  | 
Cc1cccc(C)c1N1C(Cn2nc(-c3ccc4c(c3)OCCO4)c3c(N)ncnc32)=Nc2ccccc2S1(=O)=O [15e, 3-((4-Amino-3-(2,3-dihydrobenzo[b][1,4]dioxin-6-yl)-1H-pyrazolo[3,4-d]pyrimidin-1-yl)methyl)-2-(2,6-dimethylphenyl)-2H-benzo[e][1,2,4]thiadiazine 1,1-dioxide] | > 1 | 225 to 226 | not tolerated | 
Cc1cccc(C)c1N1C(Cn2nc(-c3ccc4c(c3)OCO4)c3c(N)ncnc32)=Nc2ccccc2S1(=O)=O [15f, 3-((4-Amino-3-(benzo[d][1,3]dioxol-5-yl)-1H-pyrazolo[3,4-d]pyrimidin-1-yl)methyl)-2-(2,6-dimethyl-phenyl)-2H-benzo[e][1,2,4]thiadiazine 1,1-dioxide] | > 1 | > 250 | not tolerated | 
COc1ccc(-c2nn(CC3=Nc4ccccc4S(=O)(=O)N3c3c(C)cccc3C)c3ncnc(N)c23)cc1 [15g, 3-((4-Amino-3-(4-methoxyphenyl)-1H-pyrazolo[3,4-d]pyrimidin-1-yl)methyl)-2-(2,6-dimethylphenyl)-2H-benzo[e][1,2,4]thiadiazine 1,1-dioxide] | > 1 |  | not tolerated | 
COc1cccc(-c2nn(CC3=Nc4ccccc4S(=O)(=O)N3c3c(C)cccc3C)c3ncnc(N)c23)c1 [15h, 3-((4-Amino-3-(3-methoxyphenyl)-1H-pyrazolo[3,4-d]pyrimidin-1-yl)methyl)-2-(2,6-dimethylphenyl)-2H-benzo[e][1,2,4]thiadiazine 1,1-dioxide] | > 1 |  | not tolerated | 
Cc1cccc(C)c1N1C(Cn2nc(-c3ccc(OC(F)(F)F)cc3)c3c(N)ncnc32)=Nc2ccccc2S1(=O)=O [15i, 3-((4-Amino-3-(4-(trifluoromethoxy)phenyl)-1H-pyrazolo[3,4-d]pyrimidin-1-yl)methyl)-2-(2,6-dimethyl-phenyl)-2H-benzo[e][1,2,4]thiadiazine 1,1-dioxide] | > 1 | 206 to 207 | not tolerated | 
Cc1cccc(C)c1N1C(Cn2nc(-c3ccccc3)c3c(N)ncnc32)=Nc2ccccc2S1(=O)=O [15j, 3-((4-Amino-3-phenyl-1H-pyrazolo[3,4-d]pyrimidin-1-yl)methyl)-2-(2,6-dimethylphenyl)-2H-benzo[e]-[1,2,4]thiadiazine 1,1-dioxide] | > 1 |  | not tolerated | 
Cc1cccc(C)c1N1C(Cn2nc(-c3ccc4[nH]ccc4c3)c3c(N)ncnc32)=Nc2ccc(F)cc2S1(=O)=O [16a, 3-((4-Amino-3-(1H-indol-5-yl)-1H-pyrazolo[3,4-d]pyrimidin-1-yl)methyl)-2-(2,6-dimethylphenyl)-7-fluoro-2H-benzo[e][1,2,4]thiadiazine 1,1-dioxide] | > 1 | 132 to 133 | lost its activity | 
COc1ccc(-c2nn(CC3=Nc4ccc(F)cc4S(=O)(=O)N3c3c(C)cccc3C)c3ncnc(N)c23)cc1OC [16b, 3-((A-amino-3-(3,4-dimethoxyphenyl)-1H-pyrazolo[3,4-d]pyrimidin-1-yl)methyl)-2-(2,6-dimethylphenyl)-7-fluoro-2H-benzo[e][1,2,4]thiadiazine 1,1-dioxide] | 0.518 ± 0.062 | 229 to 230 |  | decrease in PI3Kδ potency on introduction of 7-fluorine [1]: ~2 fold
COc1ccc(-c2nn(CC3=Nc4ccc(F)cc4S(=O)(=O)N3c3c(C)cccc3C)c3ncnc(N)c23)cc1F [16c, 3-((4-Amino-3-(3-fluoro-4-methoxyphenyl)-1H-pyrazolo[3,4-d]pyrimidin-1-yl)methyl)-2-(2,6-dimethyl-phenyl)-7-fluoro-2H-benzo[e][1,2,4]thiadiazine 1,1-dioxide] | 0.824 ± 0.076 | 201 to 202 | slight increase in potency | 
COc1ccc(-c2nn(CC3=Nc4ccc(F)cc4S(=O)(=O)N3c3c(C)cccc3C)c3ncnc(N)c23)cn1 [16d, 3-((4-Amino-3-(6-methoxypyridin-3-yl)-1H-pyrazolo[3,4-d]pyrimidin-1-yl)methyl)-2-(2,6-dimethylphenyl)-7-fluoro-2H-benzo[e][1,2,4]thiadiazine 1,1-dioxide] | 0.823 ± 0.069 |  |  | decrease in PI3Kδ potency on introduction of 7-fluorine [1]: ~2 fold
CC[C@H](Nc1ncnc2[nH]cnc12)c1nc2cccc(F)c2c(=O)n1-c1ccccc1 [CAL-101, reference compound] |  |  |  | GI50 [4]: 0.039 ± 0.011 µM
Cc1cccc(C)c1-n1c(Cn2nc(-c3ccc4[nH]ccc4c3)c3c(N)ncnc32)nc2cccc(F)c2c1=O [compound 3] |  |  |  | selectivity for PI3Kδ over PI3Kβ [6]: > 390 fold; selectivity for PI3Kδ over PI3Kα [7]: more than 3630 fold; selectivity for PI3Kδ over PI3Kγ [8]: > 40 fold
COc1ccc(-c2nn(Cc3nc4cccc(F)c4c(=O)n3-c3c(C)cccc3C)c3ncnc(N)c23)cc1OC [compound 4] |  |  |  | selectivity for PI3Kδ over PI3Kβ [6]: > 820 fold; selectivity for PI3Kδ over PI3Kα [7]: more than 1400 fold; selectivity for PI3Kδ over PI3Kγ [8]: 7 fold
